Earlier results as cited in patent publication US20070098469A1, “Fixing apparatus for nonheat fixing system, and image forming apparatus having fixing apparatus” (priority 2005, published 2007).

Details: in vivo

| Structure (SMILES) | LD50 [mg/kg] |
| --- | --- |
| CCCCOC(=O)CCCCCCCCC(=O)OCCCC [Di-n-butyle sebacate] | 14900 |
| CCOCCOC(=O)CCC(=O)OCCOCC [Diethoxyethyl succinate] | 5000 |
| CC(C)COC(=O)CCCCC(=O)OCC(C)C [Diisobutyl adipate] | 12300 |
| CCO [Ethanol] | 20000 |
